According to patent publication US5849695A, “Parathyroid hormone analogues useful for treatment of osteoporosis and disorders of calcium meatabolism in mammals” (The Regents of the University of California, priority 1993, dated 1998):

Columns and labels:
[1] = molecular target: T1, PTH receptor (Homo sapiens, UniProt Q03431); conditions: for BONE CELL MEMBRANES Human SaOS-2 Activity (AC): Table 5B, hPTH(1-34) = 100
T1 sequence (Q03431 27-593): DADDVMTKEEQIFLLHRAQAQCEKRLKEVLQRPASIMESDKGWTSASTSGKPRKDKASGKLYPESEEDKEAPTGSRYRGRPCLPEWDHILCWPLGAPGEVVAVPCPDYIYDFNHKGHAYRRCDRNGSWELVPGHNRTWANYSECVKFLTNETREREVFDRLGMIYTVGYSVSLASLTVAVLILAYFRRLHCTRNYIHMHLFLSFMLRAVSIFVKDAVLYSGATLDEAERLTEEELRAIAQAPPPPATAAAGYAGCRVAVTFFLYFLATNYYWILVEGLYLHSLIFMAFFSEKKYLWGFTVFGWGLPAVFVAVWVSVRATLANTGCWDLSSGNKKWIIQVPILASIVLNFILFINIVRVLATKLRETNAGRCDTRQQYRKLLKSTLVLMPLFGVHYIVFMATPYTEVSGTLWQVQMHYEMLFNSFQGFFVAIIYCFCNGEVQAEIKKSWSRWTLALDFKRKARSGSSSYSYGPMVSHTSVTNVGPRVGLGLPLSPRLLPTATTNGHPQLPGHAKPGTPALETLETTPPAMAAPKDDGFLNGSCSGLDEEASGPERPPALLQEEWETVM

[2] = molecular target: T2, PTH receptor (Canis lupus familiaris, UniProt Q9TU31); assay type: binding, canine
T2 construct: canine renal plasma membranes; from tissue; host or cells: canine kidney (renal plasma membranes)
T2 sequence (Q9TU31 29-595): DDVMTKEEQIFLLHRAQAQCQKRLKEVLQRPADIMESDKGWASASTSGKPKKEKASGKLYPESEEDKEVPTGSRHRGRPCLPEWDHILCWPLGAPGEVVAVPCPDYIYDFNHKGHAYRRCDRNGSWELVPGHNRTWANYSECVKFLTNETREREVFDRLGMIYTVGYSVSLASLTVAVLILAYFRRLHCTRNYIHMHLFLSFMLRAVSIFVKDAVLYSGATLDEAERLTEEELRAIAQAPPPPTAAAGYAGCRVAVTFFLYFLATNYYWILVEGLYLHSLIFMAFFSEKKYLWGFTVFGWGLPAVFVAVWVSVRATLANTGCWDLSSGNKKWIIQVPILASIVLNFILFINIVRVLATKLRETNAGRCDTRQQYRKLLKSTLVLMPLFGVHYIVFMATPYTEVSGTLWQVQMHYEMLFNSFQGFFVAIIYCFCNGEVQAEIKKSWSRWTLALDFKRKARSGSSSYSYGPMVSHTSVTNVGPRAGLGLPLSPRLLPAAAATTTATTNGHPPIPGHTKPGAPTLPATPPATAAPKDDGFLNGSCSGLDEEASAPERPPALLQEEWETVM
Description: (§1) Receptor binding assays were carried out in canine renal plasma membranes and in UMR 106-H5 rat osteosarcoma cells as previously described in detail (Ref. 14,32), using ^125 I-labeled PTH(1-34)amide as the radioligand. Binding potency (IC50) was quantified as the concentration of unlabeled peptide required for half-maximal displacement of the radioligand. […] Adenylate cyclase activity was assessed in canine renal membranes by the conversion of [α-32p ] ATP to [^32 P] cyclic AMP, essentially as described, except for the addition of 100 micromolar GTP (Ref. 33,34). Adenylate cyclase activity in UMR 106-H5 cells was assessed essentially as described (Ref. 35). In brief, cells were incubated with [3H]adenine 1 micro Ci/ml of serum-free MEM for two hours at 37° C. to label the endogenous ATP pool. Cells were then exposed to 0.4 mM IBMX for 10 min, followed by the appropriate peptide for an additional 10 min at ambient temperature. The cells are then scraped in 20% TCA, and [3H]cyclic AMP is isolated by the column procedure of Salomon et al. (Ref. 36). Potency in the adenylate cyclase assays (Ka) is the concentration of peptide producing half-maximal enzyme activation.

[3] = molecular target: T2, PTH receptor; assay type: biochemical, canine; conditions: for RENAL MEMBRANES Canine Activity (AC): Table 5B, hPTH(1-34) = 100
Description: as §1

[4] = molecular target: T1, PTH receptor; assay type: cell-based; parameters: In intact rat (UMR-106) and human (SaOS-2) bone cell lines; endogenous in cells; host or cells: SaOS-2 human bone (osteosarcoma) cells; conditions: for BONE CELLS Human(SaOS-2) Activity (AC): Table 5A, intact cells, hPTH(1-34) = 100
Text: The renal membrane assay values listed reflect the effect of the polypeptide analogue with kidney tissue receptors. The UMR-106-H5 assay values reflect the effect of the peptide analogue with rat bone tissue receptors. The Sa05-2 assay values reflect the effect of the peptides for human bone tissue receptors.

[5] = system: PTH receptor
[6] = molecular target: T3, PTH receptor (Rattus norvegicus, UniProt P25961); assay type: binding
T3 construct: endogenous in cells; host or cells: UMR 106-H5 rat osteosarcoma cells
T3 sequence (P25961 27-591): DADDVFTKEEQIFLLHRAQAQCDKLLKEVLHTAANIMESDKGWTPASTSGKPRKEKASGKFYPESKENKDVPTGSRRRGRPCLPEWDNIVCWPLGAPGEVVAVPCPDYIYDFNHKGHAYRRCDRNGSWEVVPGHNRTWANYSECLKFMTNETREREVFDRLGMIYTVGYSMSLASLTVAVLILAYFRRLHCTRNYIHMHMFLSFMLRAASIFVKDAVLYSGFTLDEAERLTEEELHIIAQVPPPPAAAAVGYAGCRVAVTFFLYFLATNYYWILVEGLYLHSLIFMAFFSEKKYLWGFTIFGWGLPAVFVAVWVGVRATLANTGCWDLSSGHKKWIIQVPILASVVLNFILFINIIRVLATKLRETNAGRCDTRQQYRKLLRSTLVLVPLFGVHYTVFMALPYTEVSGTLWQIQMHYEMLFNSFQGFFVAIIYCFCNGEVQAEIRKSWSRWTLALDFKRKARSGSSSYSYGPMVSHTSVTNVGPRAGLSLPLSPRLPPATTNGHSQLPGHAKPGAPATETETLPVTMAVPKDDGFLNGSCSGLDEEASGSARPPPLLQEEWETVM
Description: as §1

[7] = system: PTH receptors
[8] = molecular target: T3, PTH receptor; assay type: cell-based; conditions: for BONE CELLS Rat(UMR-106) Activity (AC): Table 5A, intact cells, hPTH(1-34) = 100
Description: as §1, with “Assays were conducted using […] cells. These assays were performed as described in Cohen et al. (1991), J. Biological Chem., 266(3), 1997 and in the Experimental section, e.g. Example 11. Receptor” for “Receptor”

[9] = molecular target: T1, PTH receptor
[10] = cited from earlier work
[11] = aqueous conditions in the absence of amphiphiles (Ref. 37-39); cited from earlier work

BONE CELL MEMBRANES Human SaOS-2 Potency (AC) [1] [%]	BONE CELL MEMBRANES Human SaOS-2 Activity (AC) [1] [%]	RENAL MEMBRANES Canine Potency (B) [2] [%]	RENAL MEMBRANES Canine Potency (AC) [3] [%]	RENAL MEMBRANES Canine Activity (AC) [3] [%]	BONE CELLS Human(SaOS-2) Potency (AC) [4] [%]	BONE CELLS Human(SaOS-2) Activity (AC) [4] [%]	BONE CELLS Rat(UMR-106) Potency (B) [6] [%]	BONE CELLS Rat(UMR-106) Potency (AC) [8] [%]	BONE CELLS Rat(UMR-106) Activity (AC) [8] [%]	Molecule	KIDNEY CELLS (CK) Potency (AC) [5] [%]	KIDNEY CELLS (CK) Potency (B) [7] [%]	potency of native [ser^3]HPTH(1-34) retained in binding to PTH receptors [7]	also measured
11	14	4	1	43	5	100	1	4	100	CC[C@H](C)[C@H](NC(=O)[C@H](CCC(=O)O)NC(=O)[C@H](Cc1c[nH]cn1)NC(=O)[C@@H](NC(=O)[C@@H](N)CO)C(C)C)C(=O)N[C@@H](CCC(N)=O)C(=O)N[C@@H](CC(C)C)C(=O)N[C@@H](CCSC)C(=O)N[C@@H](Cc1c[nH]cn1)C(=O)N[C@@H](CC(N)=O)C(=O)N[C@@H](CC(C)C)C(=O)NCC(=O)N[C@@H](CCCCN)C(=O)N[C@@H](Cc1c[nH]cn1)C(=O)N[C@@H](CC(C)C)C(=O)N[C@@H](CC(N)=O)C(=O)N[C@@H](CO)C(=O)N[C@@H](CCSC)C(=O)N[C@@H](CCC(=O)O)C(=O)N[C@@H](CCCNC(=N)N)C(=O)N[C@H](C(=O)N[C@@H](CCC(=O)O)C(=O)N[C@@H](Cc1c[nH]c2ccccc12)C(=O)N[C@@H](CC(C)C)C(=O)N[C@@H](CCCNC(=N)N)C(=O)N[C@@H](CCCCN)C(=O)N[C@@H](CCCCN)C(=O)N[C@@H](CC(C)C)C(=O)N[C@@H](CCC(N)=O)C(=O)N[C@@H](CC(=O)O)C(=O)N[C@H](C(=O)N[C@@H](Cc1c[nH]cn1)C(=O)N[C@@H](CC(N)=O)C(=O)N[C@@H](Cc1ccccc1)C(=O)O)C(C)C)C(C)C [[his^3]hPTH(1-34), [his^3]HPTH(1-34)]	13	6	5-15%	–
8	14	7	1	47	11	86	6	13	100	CC[C@H](C)[C@H](NC(=O)[C@H](CCC(=O)O)NC(=O)[C@H](CC(C)C)NC(=O)[C@@H](NC(=O)[C@@H](N)CO)C(C)C)C(=O)N[C@@H](CCC(N)=O)C(=O)N[C@@H](CC(C)C)C(=O)N[C@@H](CCSC)C(=O)N[C@@H](Cc1c[nH]cn1)C(=O)N[C@@H](CC(N)=O)C(=O)N[C@@H](CC(C)C)C(=O)NCC(=O)N[C@@H](CCCCN)C(=O)N[C@@H](Cc1c[nH]cn1)C(=O)N[C@@H](CC(C)C)C(=O)N[C@@H](CC(N)=O)C(=O)N[C@@H](CO)C(=O)N[C@@H](CCSC)C(=O)N[C@@H](CCC(=O)O)C(=O)N[C@@H](CCCNC(=N)N)C(=O)N[C@H](C(=O)N[C@@H](CCC(=O)O)C(=O)N[C@@H](Cc1c[nH]c2ccccc12)C(=O)N[C@@H](CC(C)C)C(=O)N[C@@H](CCCNC(=N)N)C(=O)N[C@@H](CCCCN)C(=O)N[C@@H](CCCCN)C(=O)N[C@@H](CC(C)C)C(=O)N[C@@H](CCC(N)=O)C(=O)N[C@@H](CC(=O)O)C(=O)N[C@H](C(=O)N[C@@H](Cc1c[nH]cn1)C(=O)N[C@@H](CC(N)=O)C(=O)N[C@@H](Cc1ccccc1)C(=O)O)C(C)C)C(C)C [[leu^3]hPTH(1-34), [leu^3] HPTH(1-34)]	16	22	5-15%	RENAL MEMBRANES Human Potency (AC) [9]: 3%; RENAL MEMBRANES Human Activity (AC) ([9]; Table 5B, hPTH(1-34) = 100): 35%
–	–	–	–	–	–	–	–	–	–	[Gln^22, Lys^28, Leu^30 hPTH(1-34)	–	–	–	loss of biological activity ([10]; Ref. 49, 50): 10-50 fold
–	–	–	–	–	–	–	–	–	–	[SOMet^18 ]bPTH(1-84)	–	–	–	activity of the native hormone retained ([10]; Ref. 49): ~50%
–	–	–	–	–	–	–	–	–	–	bPTH(7-34) (FMHNLGKHLSSMERVEWLRKKLQDVHNF; Parathyroid hormone; UniProt P01268 38-65, looked up, fragment)	–	–	–	alpha-helical residues, previous estimates [11]: 9 residues
